Patent US20260262643A1, “HERBICIDAL BENZOXAZINES” (FMC CORPORATION, priority 2022, published 2026)

How the values were obtained:
[1] = tested on: pigweed, palmer; assay: Test C preemergence; format: in vivo, Amaranthus palmeri; conditions: 0 to 100 scale (0 no effect, 100 complete control); for Pigweed, Palmer plant response rating: preemergence
Summary of the method: (§1)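 Pre: seeds in loam/sand, directed soil spray. Post: 1–2 leaf plants, 2–10 cm. Cmpd in non-phytotoxic solvent + surfactant. Greenhouse 10 d; visual rating vs untreated, 0 = none, 100 = complete control.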

[2] = tested on: ragweed; assay: Test C postemergence; format: in vivo, Ambrosia artemisiifolia; conditions: 10 days
Summary of the method: as §1

[3] = tested on: rice; assay: Test D flooded paddy test; format: in vivo, Oryza sativa; conditions: 250 g ai/ha, applied to paddy water, visual rating after 13 to 14 days, scale 0 to 100 (0 no effect, 100 complete control)
Summary of the method: (§2)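 Plants at the 2-leaf stage were grown in pots flooded to 3 cm, and compound was applied directly into the paddy water, with depth kept throughout. After 13–14 days in a greenhouse, injury was rated visually against untreated controls on a 0–100 scale (100 = complete control); a dash means not tested.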

[4] = tested on: oat, wild; assay: Test C postemergence; format: in vivo, Avena fatua; conditions: 10 days
Summary of the method: as §1

[5] = tested on: kochia; assay: Test C preemergence; format: in vivo, Bassia scoparia; conditions: 0 to 100 scale (0 no effect, 100 complete control); for Kochia plant response rating: preemergence
Summary of the method: as §1

[6] = tested on: barnyardgrass; assay: Test C preemergence; format: in vivo, Echinochloa crusgalli; conditions: 0 to 100 scale (0 no effect, 100 complete control); for Barnyardgrass plant response rating: preemergence
Summary of the method: as §1

[7] = tested on: ryegrass, Italian; assay: Test C postemergence; format: in vivo, Lolium multiflorum; conditions: 10 days
Summary of the method: as §1

[8] = tested on: green foxtail; assay: Test C preemergence; format: in vivo, Setaria viridis; conditions: 0 to 100 scale (0 no effect, 100 complete control); for Foxtail, Green plant response rating: preemergence
Summary of the method: as §1

[9] = tested on: sedge, umbrella; assay: Test D flooded paddy test; format: in vivo, Cyperus difformis; conditions: 250 g ai/ha, applied to paddy water, visual rating after 13 to 14 days, scale 0 to 100 (0 no effect, 100 complete control)
Summary of the method: as §2

[10] = tested on: blackgrass; assay: Test C preemergence; format: in vivo, Alopecurus myosuroides; conditions: 0 to 100 scale (0 no effect, 100 complete control); for Blackgrass plant response rating: preemergence
Summary of the method: as §1

[11] = tested on: horseweed; assay: Test C postemergence; format: in vivo, Erigeron canadensis; conditions: 10 days
Summary of the method: as §1

[12] = tested on: corn; assay: Test C postemergence; format: in vivo, Zea mays; conditions: 10 days
Summary of the method: as §1

[13] = tested on: wheat; assay: Test C preemergence; format: in vivo, Triticum aestivum; conditions: 0 to 100 scale (0 no effect, 100 complete control); for Wheat plant response rating: preemergence
Summary of the method: as §1

[14] = tested on: barnyardgrass; assay: Test C postemergence; format: in vivo, Echinochloa crusgalli; conditions: 10 days
Summary of the method: as §1

[15] = tested on: pigweed, palmer; assay: Test C postemergence; format: in vivo, Amaranthus palmeri; conditions: 10 days
Summary of the method: as §1

[16] = tested on: kochia; assay: Test C postemergence; format: in vivo, Bassia scoparia; conditions: 10 days
Summary of the method: as §1

[17] = tested on: ryegrass, Italian; assay: Test C preemergence; format: in vivo, Lolium multiflorum; conditions: 0 to 100 scale (0 no effect, 100 complete control); for Ryegrass, Italian plant response rating: preemergence
Summary of the method: as §1

[18] = tested on: galium; assay: Test C postemergence; format: in vivo, Galium aparine; conditions: 10 days
Summary of the method: as §1

[19] = tested on: blackgrass; assay: Test C postemergence; format: in vivo, Alopecurus myosuroides; conditions: 10 days
Summary of the method: as §1

[20] = tested on: corn; assay: Test C preemergence; format: in vivo, Zea mays; conditions: 0 to 100 scale (0 no effect, 100 complete control); for Corn plant response rating: preemergence
Summary of the method: as §1

[21] = tested on: soybean; assay: Test C postemergence; format: in vivo, Glycine max; conditions: 10 days
Summary of the method: as §1

[22] = tested on: oat, wild; assay: Test C preemergence; format: in vivo, Avena fatua; conditions: 0 to 100 scale (0 no effect, 100 complete control); for Oat, Wild plant response rating: preemergence
Summary of the method: as §1

[23] = tested on: soybean; assay: Test C preemergence; format: in vivo, Glycine max; conditions: 0 to 100 scale (0 no effect, 100 complete control); for Soybean plant response rating: preemergence
Summary of the method: as §1

[24] = tested on: green foxtail; assay: Test C postemergence; format: in vivo, Setaria viridis; conditions: 10 days
Summary of the method: as §1

[25] = tested on: wheat; assay: Test C postemergence; format: in vivo, Triticum aestivum; conditions: 10 days
Summary of the method: as §1

[26] = tested on: ragweed; assay: Test C preemergence; format: in vivo, Ambrosia artemisiifolia; conditions: 0 to 100 scale (0 no effect, 100 complete control); for Ragweed plant response rating: preemergence
Summary of the method: as §1

[27] = tested on: barnyardgrass; assay: Test D flooded paddy test; format: in vivo, Echinochloa crus-galli; conditions: 250 g ai/ha, applied to paddy water, visual rating after 13 to 14 days, scale 0 to 100 (0 no effect, 100 complete control)
Summary of the method: as §2

[28] = tested on: ducksalad; assay: Test D flooded paddy test; format: in vivo, Heteranthera limosa; conditions: 250 g ai/ha, applied to paddy water, visual rating after 13 to 14 days, scale 0 to 100 (0 no effect, 100 complete control)
Summary of the method: as §2

[29] = Preemergence, 500 g ai/ha, visual rating after 10 days
[30] = 125 g ai/ha, postemergence, 0 to 100 scale, 0 no effect, 100 complete control
[31] = Postemergence, 500 g ai/ha, visual 0 to 100 scale (0 no effect, 100 complete control)
[32] = 500 g ai/ha, postemergence, 0 to 100 scale (0 no effect, 100 complete control)

Structure (SMILES): Cc1ccc(-n2cnc(C3CCC3)n2)cc1C(=O)N1CC(C(F)(F)F)Oc2c(Cl)cccc21 (single isomer, unassigned) [Compound 219]
- Plant response rating, Pigweed, Palmer [1, 29]: 100
- Pigweed, Palmer plant response rating ([1]; Test C, 125 g ai/ha): 100
- Plant response rating, Ragweed [2, 30]: 50
- Plant response rating, Ragweed [2, 31]: 90
- Plant response rating, Rice (Flood) [3]: 0
- Plant response rating, Oat, Wild [4, 30]: 10
- Plant response rating, Oat, Wild [4, 31]: 40
- Plant response rating, Kochia [5, 29]: 100
- Kochia plant response rating ([5]; Test C, 125 g ai/ha): 90
- Plant response rating, Barnyardgrass [6, 29]: 100
- Barnyardgrass plant response rating ([6]; Test C, 125 g ai/ha): 80
- Plant response rating, Ryegrass, Italian [7, 30]: 50
- Plant response rating, Ryegrass, Italian [7, 31]: 70
- Plant response rating, Foxtail, Green [8, 29]: 100
- Foxtail, Green plant response rating ([8]; Test C, 125 g ai/ha): 100
- Plant response rating, Sedge, Umbrella (Flood) [9]: 50
- Plant response rating, Blackgrass [10, 29]: 40
- Blackgrass plant response rating ([10]; Test C, 125 g ai/ha): 0
- Plant response rating, Horseweed [11, 31]: 70
- Plant response rating, Corn [12, 30]: 20
- Plant response rating, Corn [12, 31]: 30
- Plant response rating, Wheat [13, 29]: 50
- Wheat plant response rating ([13]; Test C, 125 g ai/ha): 20
- Plant response rating, Barnyardgrass [14, 30]: 70
- Plant response rating, Barnyardgrass [14, 31]: 100
- Plant response rating, Pigweed, Palmer [15, 30]: 100
- Plant response rating, Pigweed, Palmer [15, 31]: 100
- Plant response rating, Kochia [16, 30]: 80
- Plant response rating, Kochia [16, 31]: 90
- Plant response rating, Ryegrass, Italian [17, 29]: 80
- Ryegrass, Italian plant response rating ([17]; Test C, 125 g ai/ha): 90
- Plant response rating, Galium [18, 30]: 100
- Plant response rating, Galium [18, 31]: 100
- Plant response rating, Blackgrass [19, 30]: 40
- Plant response rating, Blackgrass [19, 31]: 50
- Plant response rating, Corn [20, 29]: 20
- Corn plant response rating ([20]; Test C, 125 g ai/ha): 10
- Plant response rating, Soybean [21, 30]: 100
- Plant response rating, Soybean [21, 31]: 100
- Plant response rating, Oat, Wild [22, 29]: 70
- Oat, Wild plant response rating ([22]; Test C, 125 g ai/ha): 30
- Plant response rating, Soybean [23, 29]: 90
- Soybean plant response rating ([23]; Test C, 125 g ai/ha): 70
- Plant response rating, Foxtail, Green [24, 30]: 80
- Plant response rating, Foxtail, Green [24, 31]: 90
- Plant response rating, Wheat [25, 30]: 20
- Plant response rating, Wheat [25, 31]: 40
- Plant response rating, Ragweed [26, 29]: 70
- Ragweed plant response rating ([26]; Test C, 125 g ai/ha): 30
- Plant response rating, Barnyardgrass (Flood) [27]: 10
- Plant response rating, Ducksalad (Flood) [28]: 50

Structure (SMILES): CC(C)c1ncn(-c2cccc(C(=O)N3CC(C(F)(F)F)Oc4c(Cl)cccc43)c2)n1 (single isomer, unassigned) [Compound 288]
- Pigweed, Palmer plant response rating ([1]; 500 g ai/ha): 80
- Pigweed, Palmer plant response rating ([1]; Test C, 125 g ai/ha): 50
- Plant response rating, Ragweed [2, 30]: 30
- Plant response rating, Ragweed [2, 32]: 30
- Plant response rating, Rice (Flood) [3]: 0
- Plant response rating, Oat, Wild [4, 30]: 0
- Plant response rating, Oat, Wild [4, 32]: 0
- Kochia plant response rating ([5]; 500 g ai/ha): 50
- Kochia plant response rating ([5]; Test C, 125 g ai/ha): 10
- Barnyardgrass plant response rating ([6]; 500 g ai/ha): 30
- Barnyardgrass plant response rating ([6]; Test C, 125 g ai/ha): 0
- Plant response rating, Ryegrass, Italian [7, 30]: 0
- Plant response rating, Ryegrass, Italian [7, 32]: 20
- Foxtail, Green plant response rating ([8]; 500 g ai/ha): 70
- Foxtail, Green plant response rating ([8]; Test C, 125 g ai/ha): 0
- Plant response rating, Sedge, Umbrella (Flood) [9]: 0
- Blackgrass plant response rating ([10]; 500 g ai/ha): 60
- Blackgrass plant response rating ([10]; Test C, 125 g ai/ha): 10
- Plant response rating, Horseweed [11, 30]: 0
- Plant response rating, Horseweed [11, 32]: 0
- Plant response rating, Corn [12, 30]: 0
- Plant response rating, Corn [12, 32]: 10
- Wheat plant response rating ([13]; 500 g ai/ha): 20
- Wheat plant response rating ([13]; Test C, 125 g ai/ha): 0
- Plant response rating, Barnyardgrass [14, 30]: 10
- Plant response rating, Barnyardgrass [14, 32]: 10
- Plant response rating, Pigweed, Palmer [15, 30]: 10
- Plant response rating, Pigweed, Palmer [15, 32]: 50
- Plant response rating, Kochia [16, 30]: 40
- Plant response rating, Kochia [16, 32]: 80
- Ryegrass, Italian plant response rating ([17]; 500 g ai/ha): 80
- Ryegrass, Italian plant response rating ([17]; Test C, 125 g ai/ha): 80
- Plant response rating, Galium [18, 30]: 60
- Plant response rating, Galium [18, 32]: 50
- Plant response rating, Blackgrass [19, 30]: 0
- Plant response rating, Blackgrass [19, 32]: 10
- Corn plant response rating ([20]; 500 g ai/ha): 10
- Corn plant response rating ([20]; Test C, 125 g ai/ha): 0
- Plant response rating, Soybean [21, 30]: 60
- Plant response rating, Soybean [21, 32]: 80
- Oat, Wild plant response rating ([22]; 500 g ai/ha): 20
- Oat, Wild plant response rating ([22]; Test C, 125 g ai/ha): 20
- Soybean plant response rating ([23]; 500 g ai/ha): 40
- Soybean plant response rating ([23]; Test C, 125 g ai/ha): 40
- Plant response rating, Foxtail, Green [24, 30]: 10
- Plant response rating, Foxtail, Green [24, 32]: 20
- Plant response rating, Wheat [25, 30]: 10
- Plant response rating, Wheat [25, 32]: 20
- Ragweed plant response rating ([26]; 500 g ai/ha): 0
- Ragweed plant response rating ([26]; Test C, 125 g ai/ha): 0
- Plant response rating, Barnyardgrass (Flood) [27]: 0
- Plant response rating, Ducksalad (Flood) [28]: 0
